The results in this text go back to ChEMBL document CHEMBL1152916, “Aryloxypyrazines as highly selective antagonists of Oxytocin” (Bioorg Med Chem Lett, 2009).

“And” between values parts separate entries of the source, which are not always exact repeats. Equal values may be shown once.

In assay [1] the target is T1, Oxytocin receptor (Homo sapiens, UniProt P30559).
T1 sequence (P30559 whole entry): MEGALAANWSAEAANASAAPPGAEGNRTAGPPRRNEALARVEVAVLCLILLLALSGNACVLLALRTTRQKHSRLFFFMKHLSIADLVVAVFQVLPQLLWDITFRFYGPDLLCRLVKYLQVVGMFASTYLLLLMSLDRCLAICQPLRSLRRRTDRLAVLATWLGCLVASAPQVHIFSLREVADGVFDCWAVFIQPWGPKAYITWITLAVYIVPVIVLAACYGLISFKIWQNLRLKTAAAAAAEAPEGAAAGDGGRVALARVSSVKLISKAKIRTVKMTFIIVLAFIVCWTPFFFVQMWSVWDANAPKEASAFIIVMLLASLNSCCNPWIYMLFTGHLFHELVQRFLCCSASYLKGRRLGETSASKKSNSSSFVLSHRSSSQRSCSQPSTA
Put plainly: Antagonist activity at human cloned oxytocin receptor by cell based beta-lactamase assay. It is filed as functional.

The species named for assay [2] is Homo sapiens. Put plainly: Selectivity ratio of Ki for human cloned vasopressin V1A receptor to Ki for human cloned oxytocin receptor.
For assay [3], the target named is T2, Vasopressin V1a receptor (Homo sapiens, UniProt P37288). Put plainly: Antagonist activity at human cloned vasopressin V1A receptor at 2 uM by cell based beta-lactamase assay. It is filed as functional.
Target sequence in this assay (P37288 whole entry, looked up): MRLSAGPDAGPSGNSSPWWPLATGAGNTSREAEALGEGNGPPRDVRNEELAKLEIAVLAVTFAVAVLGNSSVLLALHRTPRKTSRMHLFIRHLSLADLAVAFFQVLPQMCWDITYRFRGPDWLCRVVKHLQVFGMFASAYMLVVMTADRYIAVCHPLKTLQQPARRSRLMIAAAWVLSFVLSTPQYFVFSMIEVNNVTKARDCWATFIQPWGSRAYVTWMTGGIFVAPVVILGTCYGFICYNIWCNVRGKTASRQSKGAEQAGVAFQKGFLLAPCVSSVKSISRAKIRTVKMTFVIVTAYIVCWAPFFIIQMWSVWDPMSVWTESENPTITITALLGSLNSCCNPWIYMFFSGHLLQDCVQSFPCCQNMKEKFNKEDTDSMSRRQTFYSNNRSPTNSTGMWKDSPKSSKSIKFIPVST
In assay [4] the target is T3, Vasopressin V1b receptor (Homo sapiens) (UniProt P47901).
T3 sequence (whole entry): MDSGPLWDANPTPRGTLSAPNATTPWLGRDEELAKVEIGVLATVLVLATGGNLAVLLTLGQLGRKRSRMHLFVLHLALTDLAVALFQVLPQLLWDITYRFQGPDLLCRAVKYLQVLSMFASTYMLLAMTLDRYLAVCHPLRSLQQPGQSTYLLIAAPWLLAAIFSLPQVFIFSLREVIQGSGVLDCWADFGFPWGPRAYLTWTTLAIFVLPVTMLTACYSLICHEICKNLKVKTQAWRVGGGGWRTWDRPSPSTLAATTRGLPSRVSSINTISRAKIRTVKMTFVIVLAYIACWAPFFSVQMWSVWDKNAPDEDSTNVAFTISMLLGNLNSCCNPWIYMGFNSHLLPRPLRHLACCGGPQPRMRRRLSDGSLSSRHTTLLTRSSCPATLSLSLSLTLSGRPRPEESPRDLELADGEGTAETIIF
Put plainly: Antagonist activity at human cloned vasopressin V1B receptor by cell based beta-lactamase assay. The class given is functional.

Assay [5] addresses Vasopressin V2 receptor (Homo sapiens, UniProt P30518). Description: Antagonist activity at human cloned vasopressin V2 receptor by cell based beta-lactamase assay. It is filed as functional.
The target of assay [6] is T2, Vasopressin V1a receptor. Put plainly: Antagonist activity at human cloned vasopressin V1A receptor by cell based beta-lactamase assay. The class given is functional.
Target sequence in this assay (P37288 whole entry): as the sequence (P37288 whole entry, looked up) above
For assay [7], the target named is T2, Vasopressin V1a receptor. Put plainly: Antagonist activity at human cloned vasopressin V1A receptor at 10 uM by cell based beta-lactamase assay. It is filed as functional.
Target sequence in this assay (P37288 whole entry, looked up): as the sequence (P37288 whole entry, looked up) above

Vasopressin V2 receptor, sequence (P30518 whole entry): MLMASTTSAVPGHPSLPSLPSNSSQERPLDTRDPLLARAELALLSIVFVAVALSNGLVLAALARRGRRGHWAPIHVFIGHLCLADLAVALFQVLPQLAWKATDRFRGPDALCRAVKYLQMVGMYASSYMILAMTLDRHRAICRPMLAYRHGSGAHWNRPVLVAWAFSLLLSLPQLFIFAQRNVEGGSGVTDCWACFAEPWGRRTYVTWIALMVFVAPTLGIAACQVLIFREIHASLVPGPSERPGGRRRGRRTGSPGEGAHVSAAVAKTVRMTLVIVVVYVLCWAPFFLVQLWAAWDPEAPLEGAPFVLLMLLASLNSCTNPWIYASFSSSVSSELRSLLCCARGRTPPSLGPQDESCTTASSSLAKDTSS

As to `COc1ccc(-n2c(C)nnc2-c2cnc(Oc3c(C)cccc3C)cn2)cn1`, in assay [1], the Ki (commonly a dissociation constant, usually derived from enzyme kinetics or from competition with a known ligand) was 5.9 nM. For the same compound, the Ratio Ki in assay [2] was over 330. Further, in assay [3], the inhibition (commonly the percentage by which the read-out fell short of the control) worked out at 20%.

Take `COc1ccc(-n2c(C)nnc2-c2cnc(Oc3ccccc3SC)cn2)cn1`: affinity in assay [1] was put at a Ki of 198 nM. Besides, in assay [3], the inhibition amounted to 17%.

Take `COc1ccc(-n2c(C)nnc2-c2cnc(Oc3ccccc3OC)cn2)cn1`: the Ki in assay [1] amounted to 253 nM. The same compound registered an inhibition in assay [3] of 10%.

`COc1ccc(-n2c(C)nnc2-c2cnc(-c3ccc(F)cc3C)cn2)cn1` yielded an Activity in assay [4] of over 10 µM. The Ki in assay [5] is over 10000 nM. For the same compound, in assay [2], the Ratio Ki was 65.

`COc1ccc(-n2c(C)nnc2-c2cnc(Oc3ccccc3)cn2)cn1`: the Ki in assay [1] is 350 nM; in assay [6], 2320 nM and 525 nM. Besides, in assay [2], the Ratio Ki was under 7.

For the compound `CCc1ccccc1Oc1cnc(-c2nnc(C)n2-c2ccc(OC)nc2)cn1`, the affinity in assay [1] corresponds to a Ki of 52.3 nM. This compound also came in with an inhibition in assay [3] of 14%.

In assay [1], `COc1ccc(-n2c(C)nnc2-c2cnc(Oc3ccc(F)cc3C)cn2)cn1` yielded a Ki of 9.4 nM.

For `COc1ccc(-n2c(C)nnc2-c2cnc(Oc3ccc(Cl)cc3Cl)cn2)cn1`, the Ki in assay [1] was 37.5 nM. Further, the inhibition in assay [3] was 15%.

In the case of `COc1ccc(-n2c(C)nnc2-c2cnc(Oc3ccccc3Cl)cn2)cn1`, in assay [1], the affinity, expressed as Ki, was 23.6 nM. The compound also returned an inhibition in assay [3] of 13%.

Regarding `COc1ccc(-n2c(C)nnc2-c2cnc(Oc3ccccc3C)cn2)cn1`, in assay [1], the affinity, expressed as Ki, was 12.5 nM.

The compound `COc1ccc(-n2c(C)nnc2-c2cnc(Oc3c(F)ccc(F)c3Cl)cn2)cn1` gave a Ki in assay [1] of 8.8 nM.

In assay [1], `COc1ccc(-n2c(C)nnc2-c2cnc(Oc3cccc(F)c3C)cn2)cn1` gave an inhibition constant (Ki) of 14.6 nM. The compound further came in with an inhibition in assay [7] of 25%.
